Laboratory results: patent US9315534B2, “Radiologic agents for monitoring alzheimer's disease progression and Evaluating a Response to Therapy and processes for the preparation of such agents” (BOARD OF REGENTS OF THE UNIVERSITY OF NEBRASKA, priority 2007, dated 2016)

Columns and labels:
BChE [1] = target: T1, BChE (Mus musculus, UniProt Q03311); details: for activity in head of AD mouse, planar image: 1 hour after tail vein IV 0.5 mCi
Description: Two sets of preliminary biodistribution studies were conducted: (1) in normal athymic mice to determine general biodistribution and the brain uptake; and (2) in at least ˜7-14 months old APPswe mice (strain B6C3-Tg(APPswe,PSEN1dE9)85 Dbo/J; abbreviated as AD mice in the text below). JAX® GEMM® Strain wildtype mice from the colony were used as the control. B6C3-Tg(APPswe,PSEN1dE9) 85 Dbo/J is a double transgenic mice expressing chimeric mouse/human amyloid precursor protein(Mo/Hu APP695swe) and a mutant human presenilin 1(PS1-dE9) both directed to CNS neurons. Both mutations are associated with the early onset AD. Aβ plaques are produced in these mice in hippocampus and cortex by 9 months of age with the occasional deposits found in mice as young as 6 months of age (Jankowsky et al. (2004) Hum. Mol. Genet., 13:159-70; Garcia-Alloza et al. (2006) Neurobiol. Dis., 24:516-524). Planar imaging was done using a pinhole gamma camera. […] In both images mice are positioned with the dorsal surface of the mouse facing the pinhole collimator. […] There were 6 mice per each time point.

AChE = AChE (Bos taurus, UniProt P23795); details: SDS-PAGE autoradiogram
Description: Lanes 1, 2: BChE-containing mouse serum incubated with 2a in (1) PBS+DMSO; (2) PBS+0.1% Triton X100+DMSO. Lanes 3-5: AChE-only containing bovine serum incubated with 2a in (3) DMSO; (4) PBS+DMSO; (5) PBS+0.1% Triton X-100+DMSO.

[2] = Solubility in water, buffers and physiologically appropriate solvents
BChE [3] = target: T1, BChE; details: IV 0.5 mCi, 48 hours
Description: FIG. 7 provides images of microautoradiography of brain sections of AD mouse treated with IV dose of 0.5 mCi 3. Mouse was killed 48 hours after the administration of 3. Counterstained H&E; 10×.
FIG. 8 provides a microautoradiography of brain sections of the matching control mouse also treated with IV doses of 0.5 mCi 3. Mouse was killed 48 hours after the administration of 3. Counterstained H&E; 10×.
FIG. 9 provides an image of a section of brain from control mouse treated with 3 48 hours before necropsy. 100×; H&E.
FIG. 10 provides images of brain sections from AD mouse 48 hours after IV dose of 0.5 mCi 3. […] FIG. 10D: Cross-section of a blood vessel containing red blood cells surrounded by silver grains corresponding to circulating 3.
FIG. 8 is the corresponding section of a brain from a matched control mouse treated in the same manner. […] Imperfections in focus are because brain sections and silver grains are in different planes, tissue section vs. emulsion.

BChE [4] = target: T1, BChE
Description: Biodistribution studies were also conducted on 3, another BChE-binding derivative, in AD mouse and in normal controls. This study of 3 was conducted in >12-months old AD mice and matching control mice. All mice received IV 10 μCi of 3. Mice were killed 48 hours later. Tissues were collected and their radioactive content determined in a γ counter. One-half of each brain was fixed. The radioactivity in the other half was counted in a γ counter.

[5] = Partition coefficient, shake-tube method, 1-octanol and water; assay type: physicochemical; details: 1-octanol/water; for Partition coefficient P avg (std dev): 19° C., 125I-labeled pure diastereomers
Description: In order to reach intracerebral targets, drugs developed for diagnosis of the AD must be able to cross two barriers separating the central nervous system (CNS) from the periphery (Hansch et al. (1987) J. Pharm. Sci., 76:663-87.), the blood-brain barrier and the blood-cerebrospinal fluid barrier. Therefore the preliminary evaluation of the new drugs included partition coefficients. CNS agents that are highly lipid soluble with the log octanol-water partition coefficient between 1 and 3 have the equilibration half-times that are proportional to brain solubility (Atkinson et al. (2002) Curr. Med. Chem., 2:229-40; Dutta et al. (1998) Br. J. Anaesth., 81:422-4; Buchwald et al. (1998) Curr. Med. Chem., 5:353-80). Only pure SP and RP diastereomers were used. Ten μCi of each ^125I-labeled compound was added to 3 mL of water, the mixture was vortexed and 1-mL aliquots were transferred into fresh tubes. To each tube 1 mL of 1-octanol was added and the mixtures were vigorously vortexed until a homogenous suspension formed. At this point, the organic and water layers were separated by centrifugation at 19° C. Aliquots of each phase were gently removed and counted in a gamma counter in a triplicate. Typically, each KP was calculated as an average of n≧18.

T1 sequence (Q03311 30-603): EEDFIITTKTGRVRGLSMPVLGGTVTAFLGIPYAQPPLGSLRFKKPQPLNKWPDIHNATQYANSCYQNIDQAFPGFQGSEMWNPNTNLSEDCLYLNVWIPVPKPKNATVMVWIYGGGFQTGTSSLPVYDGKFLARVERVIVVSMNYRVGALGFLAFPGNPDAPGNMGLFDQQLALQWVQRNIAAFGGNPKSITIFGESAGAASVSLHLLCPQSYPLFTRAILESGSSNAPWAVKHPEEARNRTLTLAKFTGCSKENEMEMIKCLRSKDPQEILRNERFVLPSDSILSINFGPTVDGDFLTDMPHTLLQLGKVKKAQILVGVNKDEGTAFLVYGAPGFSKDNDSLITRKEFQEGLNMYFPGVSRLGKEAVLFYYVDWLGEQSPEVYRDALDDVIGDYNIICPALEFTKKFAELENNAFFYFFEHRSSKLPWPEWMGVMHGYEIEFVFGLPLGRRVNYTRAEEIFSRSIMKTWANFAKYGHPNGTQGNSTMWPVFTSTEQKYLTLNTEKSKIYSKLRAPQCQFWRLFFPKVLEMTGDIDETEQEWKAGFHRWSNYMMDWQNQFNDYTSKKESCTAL
Chain of AChE (P23795 31-613): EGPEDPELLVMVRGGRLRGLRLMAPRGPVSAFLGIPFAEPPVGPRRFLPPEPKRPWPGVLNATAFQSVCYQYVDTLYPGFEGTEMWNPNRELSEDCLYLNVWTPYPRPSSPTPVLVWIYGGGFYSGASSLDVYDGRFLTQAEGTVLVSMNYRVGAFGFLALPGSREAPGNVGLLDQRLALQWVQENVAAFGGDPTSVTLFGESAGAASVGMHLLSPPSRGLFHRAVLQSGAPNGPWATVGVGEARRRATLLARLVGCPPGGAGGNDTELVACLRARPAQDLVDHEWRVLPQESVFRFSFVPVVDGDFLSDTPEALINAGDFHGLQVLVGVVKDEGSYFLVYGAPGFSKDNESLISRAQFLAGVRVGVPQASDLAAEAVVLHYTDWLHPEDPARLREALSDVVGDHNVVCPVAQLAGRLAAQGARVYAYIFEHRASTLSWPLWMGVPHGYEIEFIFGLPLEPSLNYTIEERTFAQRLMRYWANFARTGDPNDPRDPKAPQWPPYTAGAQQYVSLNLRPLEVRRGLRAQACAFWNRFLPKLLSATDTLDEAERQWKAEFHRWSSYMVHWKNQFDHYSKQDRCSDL

## CC(C)(C)c1cc(C(C)(C)C)c2c(c1F)COP(=O)(OCC1OC(n3cc([125I])c(=O)[nH]c3=O)CC1O)O2 (stereo not drawn) [Compound 2a]
BChE [1]
  activity in head of AD mouse, planar image: accumulation of 2a in the head of the AD mouse
BChE [1]; AD mice, IV, all time points, 6 mice per time point
  percent injected dose per gram brain, 2a versus 2b: significantly higher
AChE
  binding to bovine serum (AChE, no BChE): complete absence
[2]
  solubility in buffers and other physiologically appropriate solvents: low

## O=c1[nH]c(=O)n(C2CC(O)C(COP3(=O)OCc4ccccc4O3)O2)cc1[125I] (mixture of isomers) [Compound 3]
BChE [3]; AD mouse
  clusters of radioactivity in brain of AD mice: large clusters of radioactivity
BChE [3]; control mouse
  clusters of radioactivity in brains of control mice: practically absent
BChE [4]; 48 hours after IV
  brain uptake AD mice compared to wildtype controls: ~3 times
BChE [4]; >12-months old AD mice, IV 10 μCi, 48 hours
  brain uptake in AD mice: 0.085±0.008 % ID/g
BChE [4]; control mice, IV 10 μCi, 48 hours
  brain uptake in matching wildtype controls: 0.030±0.011 % ID/g

## Cc1cccc2c1OP(=O)(OCC1OC(n3cc([125I])c(=O)[nH]c3=O)CC1O)OC2 (stereo not drawn) [Compound 4a]
[5]
  log P: 0.857
  Partition coefficient P avg (std dev): 7.19 (0.37)

## O=c1[nH]c(=O)n(C2CC(O)C(COP3(=O)OCc4ccccc4O3)O2)cc1[125I] (stereo not drawn) [Compound 3b]
[5]
  log P: 0.652
  Partition coefficient P avg (std dev): 4.49 (0.25)

## Cc1cccc2c1OP(=O)(OCC1OC(n3cc([125I])c(=O)[nH]c3=O)CC1O)OC2 (stereo not drawn) [Compound 4b]
[5]
  log P: 0.846
  Partition coefficient P avg (std dev): 7.02 (0.34)

## O=c1[nH]c(=O)n(C2CC(O)C(COP3(=O)OCc4ccccc4O3)O2)cc1[125I] (stereo not drawn) [Compound 3a]
[5]
  log P: 0.623
  Partition coefficient P avg (std dev): 4.19 (0.12)

## CC(C)(C)c1cc(C(C)(C)C)c2c(c1F)COP(=O)(OCC1OC(n3cc([125I])c(=O)[nH]c3=O)CC1O)O2 (stereo not drawn) [Compound 2b]
BChE [1]
  activity in head of AD mouse, planar image: only the background level of activity
